Results as given in patent publication US11505556B2, “Halogenated derivatives of morphinans and uses thereof” (Xalud Therapeutics, Inc., priority 2017, dated 2022).
Where “and” joins values, the source holds several entries; their conditions need not be identical. Identical values can stand only once. Like-named read-outs stand apart in the source and are kept apart here.

What was measured:
in vitro [1] = conditions: mouse, hepatocytes
in vitro [2] = conditions: human, cultured hepatocytes
hERG = hERG (Homo sapiens, UniProt Q12809); test: hERG inhibition
in vitro [3] = conditions: dog, cultured hepatocytes
[4] = test system: TLR4 (LPS-stimulated NO production, BV-2 mouse microglia cell line); test: NO assay: inhibition of LPS-induced NO production in BV-2 microglia (iNOS cellular); type: cell-based; conditions: Mus musculus
From the text: NO assay: Microglia are the resident cells of the innate immune system in the central nervous system, and TLR4 is primarily expressed by microglia rather than astrocytes or neurons in the CNS. Given this expression profile, the BV-2 mouse microglia cell line was used as the model system of microglia, as these cells recapitulate many of the responses of primary microglia with high fidelity. TLR4 activation induces the downstream production of the inflammatory factor NO, which contributes to the development of neuropathic pain and drug addiction. BV-2 murine microglia were grown in supplemented DMEM (including 10% FBS, 50 unit mL^−1 penicillin, 50 μg·mL^−1 streptomycin). BV-2 cells were detached from the flask by trypsin digestion when ˜80% confluence was reached. Cells were seeded at a density of 4×10^4 cells per well in 96-well plates. After overnight incubation, media was aspirated and changed to DMEM media without FBS. Cells were then treated with LPS (200 ng/ml) and different concentrations of the testing compounds. After 24 h treatment, 100 μL of supernatant media was removed after cells were treated for 24 h and added to flat black 96-well microfluor plates (Thermo Scientific, MA, USA). Subsequently, 10 μL of 2, 3-diaminonaphthalene (0.05 mg·mL^−1 in 0.62 M HCl) was added to each well and incubated for 15 min. The reaction was quenched by addition of 5 μL of 3 M NaOH and the plate was read on a Beckman Coulter DTX880 reader (Fullerton, Calif., USA) with excitation at 360 nm and emission at 430 nm.
N chain NTX: This experimentation involved an in vitro assay where mouse BV2 cells were treated with LPS, which results in the release of nitric oxide (NO). Blockade of TLR4 activity results in reduced NO production. Therefore, IC50 values were determined for test compounds that antagonize TLR4 activity. A series of test compounds were prepared, with different N-alkyl chains replacing the cyclopropyl methyl found in naltrexone. Cell viability was also measured by a standard assay, e.g., measurement of the release of cytoplasm-resident enzymes in the tissue culture supernatant or media to detect cell loss/lysis/rupture. A dose-inhibition curve was generated by testing the TLR4 antagonist compound for the ability to block LPS-stimulated iNOs induction. In FIG. 7, the inhibition levels across a range of doses are graphed, along with a regression curve. The IC50 value—50% inhibition level—is also provided, graphed against the length of the alkyl chain. Note that with longer N-alkyl chain the IC50 was reduced, although cell viability became problematic.
FIGS. 8B to 8D show the results of the inhibition of NO production from LPS-stimulated BV2 cells using the assay described above.

in vitro [5] = conditions: monkey, cultured hepatocytes
in vitro [6] = conditions: rat, cultured hepatocytes
Transporter, Adenosine = test: Off-target screening; type: binding
From the text: (§1) In addition to the animal studies presented above in Examples 1-9, the results of in vitro testing of several of the compounds (i.e., XT-203, XT-204, and XT-206 through XT-217) are shown in Table 5 and Table 6. […]. Nine additional compounds had two or fewer off-target hits in the screening. […] These compounds spanned all of the tested N-modification classes. […]. Thus, the medicinal chemistry approach taken in this series of fluorinated compounds can yield low off-target activity and longer metabolic lifetime while preserving TLR4 antagonism. It is appreciated that further development of compounds in this class, using techniques known to those skilled in the art, may yield additional compounds with desirable pharmacologic and toxicologic characteristics.

Opiate κ (OP2, KOP) = Opiate κ (OP2, KOP) (Homo sapiens, UniProt P41145); test: Off-target screening; type: binding
From the text: as §1

Progesterone, PR-B = Progesterone, PR-B (Homo sapiens, UniProt P06401); test: Off-target screening; type: binding
From the text: as §1

[7] = target: Transporter, Dopamine (DAT) (Homo sapiens, UniProt Q01959); test: Off-target screening; type: binding
From the text: as §1

[8] = target: Transporter, Norepinephrine (NET) (Homo sapiens, UniProt P23975); test: Off-target screening; type: binding
From the text: as §1

Cannabinoid CB1 = Cannabinoid CB1 (Homo sapiens, UniProt P21554); test: Off-target screening; type: binding
From the text: as §1

Adenosine A2A = Adenosine A2A (Homo sapiens, UniProt P29274); test: Off-target screening; type: binding
From the text: as §1

Vasopressin V1A = Vasopressin V1A (Homo sapiens, UniProt P37288); test: Off-target screening; type: binding
From the text: as §1

[9] = test system: GABA A, chloride channel, TBOB; test: Off-target screening; type: binding
From the text: as §1

Adrenergic α1B = test: Off-target screening; type: binding
From the text: as §1

Adrenergic α2B = Adrenergic α2B (Homo sapiens, UniProt P18089); test: Off-target screening; type: binding
From the text: as §1

Dopamine D2L = Dopamine D2L (Homo sapiens, UniProt P14416); test: Off-target screening; type: binding
From the text: as §1

Dopamine D2S = Dopamine D2S (Homo sapiens, UniProt P14416); test: Off-target screening; type: binding
From the text: as §1

Adrenergic α1D = Adrenergic α1D (Homo sapiens, UniProt P25100); test: Off-target screening; type: binding
From the text: as §1

Histamine H2 = Histamine H2 (Homo sapiens, UniProt P25021); test: Off-target screening; type: binding
From the text: as §1

Tachykinin NK1 = Tachykinin NK1 (Homo sapiens, UniProt P25103); test: Off-target screening; type: binding
From the text: as §1

Opiate μ (OP3, MOP) = Opiate μ (OP3, MOP) (Homo sapiens, UniProt P35372); test: Off-target screening; type: binding
From the text: as §1

Sodium channel site 2 = test: Off-target screening; type: binding
From the text: as §1

[10] = test system: Calcium channel L-Type, phenylalkylamine; test: Off-target screening; type: binding
From the text: as §1

Adrenergic α2A = target: T1, Adrenergic α2A (Homo sapiens, UniProt P08913); test: Off-target screening; type: binding; conditions: 10 μM
T1 sequence (P08913 1-465): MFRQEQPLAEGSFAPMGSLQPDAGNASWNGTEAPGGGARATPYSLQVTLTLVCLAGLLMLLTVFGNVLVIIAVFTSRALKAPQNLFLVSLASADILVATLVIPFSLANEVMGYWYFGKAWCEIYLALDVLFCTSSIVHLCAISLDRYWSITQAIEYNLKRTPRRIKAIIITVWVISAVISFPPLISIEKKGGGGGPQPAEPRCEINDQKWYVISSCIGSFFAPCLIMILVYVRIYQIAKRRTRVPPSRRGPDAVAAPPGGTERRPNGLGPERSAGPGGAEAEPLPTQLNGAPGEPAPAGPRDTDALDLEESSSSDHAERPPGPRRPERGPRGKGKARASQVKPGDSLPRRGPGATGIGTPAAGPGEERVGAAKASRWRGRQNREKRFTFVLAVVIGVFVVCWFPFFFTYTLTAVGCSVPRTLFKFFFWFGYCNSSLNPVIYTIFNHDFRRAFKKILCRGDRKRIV
From the text: as §1

Adrenergic α1A = test: Off-target screening; type: binding
From the text: as §1

[11] = test system: Calcium channel L-Type, benzothiazepine; test: Off-target screening; type: binding
From the text: as §1

[12] = test system: off-target screening panel; test: Off-target inhibition screening (whole panel); conditions: 10 μM test concentration; hit = inhibition at or above the 50% level
From the text: as §1

Human hepatocytes = test: Hepatocyte elimination of parent compound; conditions: cultured hepatocytes
iNOS = iNOS (Homo sapiens, UniProt P35228); test: iNOS enzyme inhibition; type: biochemical
[13] = Hepatocyte elimination of parent compound, spread across species; type: in vitro ADME; conditions: mouse, rat, dog, monkey, human, hepatocytes; lowest to highest species value; read-out: range of hepatocyte elimination half-life values across species
Procedure: Hepatocyte Elimination: (+)-NTX, AK-17 and XT-203 were incubated with cultured hepatocytes from the species listed in FIG. 9 and Table 4, and samples of the culture supernatant were collected over time. Samples were concentrated by nitrogen drying followed by reconstitution with 40% methanol for LC/MS analysis The data points were analyzed using the WinNonLin pharmacokinetics software package, and a half-life was determined that describes the rate of parent elimination. […].
as §1

[14] = target: Protein tyrosine kinase LCK (Homo sapiens, UniProt P06239); test: Off-target screening; type: biochemical
From the text: as §1

[15] = Microglia, Table 6, unit inferred, footnote: Indicator of TL4 antagonism
[16] = LPS (200 ng/ml), 24 h, BV-2 cells, Table 3

hERG, sequence (Q12809 whole entry): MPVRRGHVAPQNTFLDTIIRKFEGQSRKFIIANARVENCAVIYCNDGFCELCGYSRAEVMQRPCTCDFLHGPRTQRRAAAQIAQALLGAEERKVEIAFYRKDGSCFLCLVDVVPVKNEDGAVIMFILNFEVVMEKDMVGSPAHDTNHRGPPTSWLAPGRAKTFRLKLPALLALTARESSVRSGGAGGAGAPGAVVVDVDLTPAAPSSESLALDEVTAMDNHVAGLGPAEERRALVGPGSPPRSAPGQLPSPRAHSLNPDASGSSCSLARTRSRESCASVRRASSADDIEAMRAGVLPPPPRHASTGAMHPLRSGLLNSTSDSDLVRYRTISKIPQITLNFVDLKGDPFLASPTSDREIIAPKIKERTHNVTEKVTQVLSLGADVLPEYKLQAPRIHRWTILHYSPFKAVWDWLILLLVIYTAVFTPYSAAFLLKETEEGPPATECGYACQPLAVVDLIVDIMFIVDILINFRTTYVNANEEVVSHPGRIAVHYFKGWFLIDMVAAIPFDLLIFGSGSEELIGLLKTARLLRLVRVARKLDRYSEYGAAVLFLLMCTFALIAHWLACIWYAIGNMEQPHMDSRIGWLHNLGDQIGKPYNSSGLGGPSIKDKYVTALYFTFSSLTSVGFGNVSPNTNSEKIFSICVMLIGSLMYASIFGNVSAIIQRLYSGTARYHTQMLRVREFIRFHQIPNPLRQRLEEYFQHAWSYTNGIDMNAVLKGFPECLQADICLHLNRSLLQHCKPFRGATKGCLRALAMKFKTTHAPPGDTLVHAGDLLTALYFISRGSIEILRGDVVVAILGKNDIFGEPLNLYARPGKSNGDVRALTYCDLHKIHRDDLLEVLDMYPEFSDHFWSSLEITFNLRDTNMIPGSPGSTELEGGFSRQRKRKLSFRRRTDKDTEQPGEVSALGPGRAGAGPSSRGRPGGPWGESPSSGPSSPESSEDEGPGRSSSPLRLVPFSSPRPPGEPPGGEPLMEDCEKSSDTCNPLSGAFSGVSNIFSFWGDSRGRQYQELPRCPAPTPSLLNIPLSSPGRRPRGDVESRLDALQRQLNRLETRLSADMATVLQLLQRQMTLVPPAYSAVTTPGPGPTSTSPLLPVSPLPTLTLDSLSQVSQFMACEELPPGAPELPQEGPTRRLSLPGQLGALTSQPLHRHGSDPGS
Opiate κ (OP2, KOP), sequence (P41145 whole entry): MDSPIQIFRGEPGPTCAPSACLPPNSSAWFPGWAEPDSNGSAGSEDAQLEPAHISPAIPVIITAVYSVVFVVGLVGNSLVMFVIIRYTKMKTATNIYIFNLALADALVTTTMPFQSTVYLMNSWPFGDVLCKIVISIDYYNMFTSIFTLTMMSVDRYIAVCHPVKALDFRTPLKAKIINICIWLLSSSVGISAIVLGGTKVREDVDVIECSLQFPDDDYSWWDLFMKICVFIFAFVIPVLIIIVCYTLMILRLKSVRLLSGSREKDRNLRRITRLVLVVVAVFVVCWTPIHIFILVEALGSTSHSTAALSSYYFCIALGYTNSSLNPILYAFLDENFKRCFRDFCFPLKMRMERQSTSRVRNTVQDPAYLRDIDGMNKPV
Transporter, Norepinephrine (NET), sequence (P23975 whole entry): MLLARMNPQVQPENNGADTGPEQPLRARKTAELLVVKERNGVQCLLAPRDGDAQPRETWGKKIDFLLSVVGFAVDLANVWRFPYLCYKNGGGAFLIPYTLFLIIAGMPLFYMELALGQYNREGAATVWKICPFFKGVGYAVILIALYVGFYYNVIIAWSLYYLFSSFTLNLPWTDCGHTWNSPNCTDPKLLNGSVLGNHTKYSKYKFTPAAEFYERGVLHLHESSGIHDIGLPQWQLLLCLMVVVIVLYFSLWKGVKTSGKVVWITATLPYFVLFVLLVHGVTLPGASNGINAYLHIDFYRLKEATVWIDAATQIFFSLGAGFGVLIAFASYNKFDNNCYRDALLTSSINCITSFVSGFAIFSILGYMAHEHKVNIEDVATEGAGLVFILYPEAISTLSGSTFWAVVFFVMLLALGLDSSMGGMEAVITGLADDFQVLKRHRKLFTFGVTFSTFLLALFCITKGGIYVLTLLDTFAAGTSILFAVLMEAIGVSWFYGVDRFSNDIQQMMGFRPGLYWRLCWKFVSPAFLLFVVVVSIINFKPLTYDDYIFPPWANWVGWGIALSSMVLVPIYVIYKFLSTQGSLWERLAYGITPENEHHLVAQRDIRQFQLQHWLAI
Cannabinoid CB1, sequence (P21554 whole entry): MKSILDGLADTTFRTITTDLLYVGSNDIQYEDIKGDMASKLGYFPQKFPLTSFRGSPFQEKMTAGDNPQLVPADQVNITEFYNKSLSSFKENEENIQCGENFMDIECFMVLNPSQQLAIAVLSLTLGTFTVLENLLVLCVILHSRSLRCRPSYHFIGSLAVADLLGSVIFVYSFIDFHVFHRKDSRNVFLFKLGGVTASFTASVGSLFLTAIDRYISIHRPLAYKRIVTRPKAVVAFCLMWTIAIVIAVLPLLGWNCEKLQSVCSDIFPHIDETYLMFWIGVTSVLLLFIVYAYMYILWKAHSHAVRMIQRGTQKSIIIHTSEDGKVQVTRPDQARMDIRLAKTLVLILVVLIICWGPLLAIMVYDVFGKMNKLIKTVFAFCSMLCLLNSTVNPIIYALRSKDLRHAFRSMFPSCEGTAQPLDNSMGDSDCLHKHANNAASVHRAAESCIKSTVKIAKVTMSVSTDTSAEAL
iNOS, sequence (P35228 whole entry): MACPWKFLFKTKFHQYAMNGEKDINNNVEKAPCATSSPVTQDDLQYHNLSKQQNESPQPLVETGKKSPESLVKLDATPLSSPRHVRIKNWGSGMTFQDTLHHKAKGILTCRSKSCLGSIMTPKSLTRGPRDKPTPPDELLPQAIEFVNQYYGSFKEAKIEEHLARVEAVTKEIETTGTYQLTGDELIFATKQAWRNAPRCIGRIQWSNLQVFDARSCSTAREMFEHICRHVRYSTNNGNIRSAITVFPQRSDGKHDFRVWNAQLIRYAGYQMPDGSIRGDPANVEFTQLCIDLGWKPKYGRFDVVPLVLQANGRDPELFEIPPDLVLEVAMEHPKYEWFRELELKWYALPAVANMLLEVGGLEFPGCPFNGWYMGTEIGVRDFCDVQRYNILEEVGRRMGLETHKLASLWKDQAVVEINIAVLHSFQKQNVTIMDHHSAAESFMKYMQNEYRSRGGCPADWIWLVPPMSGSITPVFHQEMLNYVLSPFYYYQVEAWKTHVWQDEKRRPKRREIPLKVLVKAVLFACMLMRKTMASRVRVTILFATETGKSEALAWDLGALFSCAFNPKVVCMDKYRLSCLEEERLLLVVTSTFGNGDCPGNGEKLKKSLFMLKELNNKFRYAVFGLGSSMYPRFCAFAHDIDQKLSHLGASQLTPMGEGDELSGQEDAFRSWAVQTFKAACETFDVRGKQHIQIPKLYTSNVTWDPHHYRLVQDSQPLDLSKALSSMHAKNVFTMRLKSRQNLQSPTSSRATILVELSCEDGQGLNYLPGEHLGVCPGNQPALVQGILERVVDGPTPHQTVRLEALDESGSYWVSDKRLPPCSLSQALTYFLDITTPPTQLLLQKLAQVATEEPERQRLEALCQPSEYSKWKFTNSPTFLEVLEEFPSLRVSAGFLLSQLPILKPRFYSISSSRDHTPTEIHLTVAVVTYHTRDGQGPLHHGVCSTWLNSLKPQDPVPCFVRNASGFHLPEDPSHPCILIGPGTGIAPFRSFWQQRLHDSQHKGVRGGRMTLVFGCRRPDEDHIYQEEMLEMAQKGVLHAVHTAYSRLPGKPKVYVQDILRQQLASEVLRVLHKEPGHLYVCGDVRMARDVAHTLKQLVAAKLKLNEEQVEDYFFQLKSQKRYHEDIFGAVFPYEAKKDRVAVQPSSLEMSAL
Dopamine D2L, sequence (P14416 whole entry): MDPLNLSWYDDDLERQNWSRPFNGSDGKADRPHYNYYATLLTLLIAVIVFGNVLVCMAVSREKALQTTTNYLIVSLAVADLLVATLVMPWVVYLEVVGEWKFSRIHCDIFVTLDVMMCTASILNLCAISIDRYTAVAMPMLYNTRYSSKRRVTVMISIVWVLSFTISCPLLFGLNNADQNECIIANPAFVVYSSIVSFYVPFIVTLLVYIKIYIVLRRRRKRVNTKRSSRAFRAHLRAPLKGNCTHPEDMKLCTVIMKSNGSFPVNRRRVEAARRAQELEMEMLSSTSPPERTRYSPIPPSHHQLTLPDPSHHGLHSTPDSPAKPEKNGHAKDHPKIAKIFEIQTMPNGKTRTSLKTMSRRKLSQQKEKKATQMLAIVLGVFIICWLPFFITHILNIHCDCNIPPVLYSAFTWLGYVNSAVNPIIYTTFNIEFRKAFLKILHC
Protein tyrosine kinase LCK, sequence (P06239 whole entry): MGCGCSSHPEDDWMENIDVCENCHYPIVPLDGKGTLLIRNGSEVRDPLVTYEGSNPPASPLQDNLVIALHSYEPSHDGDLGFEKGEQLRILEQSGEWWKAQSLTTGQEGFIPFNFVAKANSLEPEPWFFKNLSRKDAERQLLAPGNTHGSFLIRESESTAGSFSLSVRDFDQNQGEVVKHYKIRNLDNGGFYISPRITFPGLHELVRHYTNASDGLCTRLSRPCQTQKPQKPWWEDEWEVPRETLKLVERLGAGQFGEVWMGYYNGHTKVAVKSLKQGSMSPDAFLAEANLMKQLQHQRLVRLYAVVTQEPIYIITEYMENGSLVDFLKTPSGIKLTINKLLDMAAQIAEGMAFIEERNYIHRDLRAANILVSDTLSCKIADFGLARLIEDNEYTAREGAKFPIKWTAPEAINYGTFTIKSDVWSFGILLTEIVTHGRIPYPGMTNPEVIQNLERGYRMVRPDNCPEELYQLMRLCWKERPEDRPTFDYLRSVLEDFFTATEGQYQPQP

SMILES	half-life (in vitro [1])	half-life (in vitro [2])	IC50 (hERG)	half-life (in vitro [3])	IC50 [4, 15]	IC50 [4, 16]	half-life (in vitro [5])	half-life (in vitro [6])	inhibition at 10 µM (Opiate κ (OP2, KOP))	inhibition at 10 µM [8]	inhibition at 10 µM (Cannabinoid CB1)	other results
COc1ccc2c3c1O[C@@H]1C(F)CCC4[C@H](C2)N(C(=O)C(C)(C)c2ccccc2)CC[C@]341 (some centres unmarked) [XT-216]	20.8 min	31.5 min	> 10 µM	17.1 min	> 10 µM	> 10 µM	10.6 min	11.3 min	69%	59%	82%	% Inhibition at 10 μM, Transporter, Adenosine (Transporter, Adenosine): 60%; inhibition at 10 µM (Progesterone, PR-B): 50%; inhibition at 10 µM [7]: 52%; inhibition at 10 µM (Adenosine A2A): 57%; inhibition at 10 µM (Vasopressin V1A): 69%; % Inhibition at 10 μM, GABA A, chloride channel, TBOB [9]: 54%
COc1ccc2c3c1O[C@@H]1C(F)CCC4[C@H](C2)N(C(C)Cc2ccccc2)CC[C@]341 (some centres unmarked) [XT-215]	20.7 min	65.6 min		19.6 min	> 10 µM	> 10 µM	22.1 min	12.7 min	79%	61%	57%	IC50 (hERG; human): 10 µM; inhibition at 10 µM (hERG; human, read-out: hERG inhibition, percent): 51%; % Inhibition at 10 μM, Adrenergic α1B (Adrenergic α1B): 99%; inhibition at 10 µM (Adrenergic α2B): 105%; inhibition at 10 µM (Dopamine D2L): 65%; inhibition at 10 µM (Dopamine D2S): 81%; inhibition at 10 µM (Adrenergic α1D): 92%; inhibition at 10 µM (Histamine H2): 82%; inhibition at 10 µM (Tachykinin NK1): 55%; inhibition at 10 µM (Opiate μ (OP3, MOP)): 79%; % Inhibition at 10 μM, Sodium channel site 2 (Sodium channel site 2): 101%; % Inhibition at 10 μM, Calcium channel L-Type phenylalkylamine [10]: 73% and 51%; inhibition at 10 µM (Adrenergic α2A): 96%; % Inhibition at 10 μM, Adrenergic α1A (Adrenergic α1A): 85% and 99%; % Inhibition at 10 μM, Calcium channel L-Type, benzothiazepine [11]: 51% and 73%
COc1ccc2c3c1O[C@@H]1C(F)CCC4[C@H](C2)N(S(C)(=O)=O)CC[C@]341 (some centres unmarked) [XT-209]	22.4 min	296 min	> 10 µM	89 min	> 10 µM	> 10 µM	39.4 min	15.3 min				off-target hits in the screening [12]: one off-target hit; parent duration in human hepatocytes relative to XT-203 (Human hepatocytes): longer parent duration than XT-203; IC50 (iNOS): > 10 µM; IC50 (iNOS; read-out: iNOS enzyme, Table 6, unit inferred): > 10 µM; half-life [13]: 15.3 to 296 min; inhibition at 10 µM [14]: 61%
